{"source": "patent US20230201240A1", "about": "“TREATMENT OF ADVANCED METASTATIC CANCER” (Can-Fite Biopharma Ltd., priority 2021, published 2023)", "key": {"[1]": {"test_system": "advanced HCC and CPB cirrhosis", "experiment": "Phase II randomized, double-blind, placebo-controlled study of namodenoson in advanced HCC with CPB cirrhosis (NCT02128958)", "format": "in vivo, human", "text": "The diagnosis of HCC in subjects without underlying cirrhosis at the time of diagnosis required cytology and/or histology; for subjects with underlying cirrhosis at the time of diagnosis, HCC diagnosis was established according to the American Association for the Study of Liver Diseases practice guidelines algorithm [Marrero J. A., et al., Hepatology. 2018; 68:723-750]. For subjects who had tolerated sorafenib, ≥3 weeks of prior treatment was required, terminating at ≥2 weeks before study entry. Inclusion criteria included: ECOG PS≤2; having CPB cirrhosis (i.e., CP score 7-9); aspartate aminotransferase (AST) and alanine aminotransferase (ALT) levels ≤5 times the upper limit of normal (ULN); total bilirubin, ≤3.0 mg/dL; serum albumin, ≥2.8 g/dL; prothrombin time (PT), ≤6 s longer than control; serum creatinine, ≤2.0 mg/dL; absolute neutrophil count, […]; and platelet count, […]. Exclusion criteria included: the presence of hepatic encephalopathy; and gastrointestinal hemorrhage requiring transfusion occurring within the past 4 weeks.\nThis was a multicenter, randomized, double-blind, placebo-controlled clinical trial (ClinicalTrials.gov identifier NCT02128958). The trial was conducted at 15 sites in Israel, Europe, and the United States. Subjects were enrolled by the participating centers and were randomly assigned 2:1, using a central randomization schedule generated by an independent biostatistician with no stratification prior to randomization. Patients were randomized to either namodenoson (Cl-IB-MECA) 25 mg or matching placebo, administered orally every 12 hours until discontinuation due to intolerance, withdrawal of consent, or death. Though treatment was administered in a continuous manner, the treatment period was divided into 4-week cycles for the purpose of data recording. No crossover was initially allowed; however, by protocol amendment, patients that continued with blinded treatment were offered namodenoson (25 mg twice daily) upon unblinding of the treatment assignments. All study site personnel were blinded to patients' treatment throughout the study period. The study was approved by all relevant national regulatory authorities and local Ethics Committees/Institutional Review Boards. The study was conducted in accordance with the Declaration of Helsinki, and written informed consent was obtained from all the patients.\nThe primary endpoint of the study was overall survival (OS). Secondary endpoints were progression-free survival (PFS), overall response rate (ORR), disease control rate (DCR), and safety. […] 2019, 70:1262-1277]. Disease response assessment was evaluated locally by 2 independent blinded radiologists using Response Evaluation Criteria in Solid Tumors (RECIST) version 1.1 [Eisenhauer E. A., et al. Eur. J. Cancer. 2009; 45:228-247]. Tumor status was assessed at baseline and every 8 weeks thereafter by computed tomography scan or magnetic resonance imaging. Safety was monitored through assessments of AEs using the US National Cancer Institute's Common Terminology Criteria for Adverse Events (CTCAE) v4.03. Changes from baseline in vital signs, clinical laboratory parameters, electrocardiograms, physical examinations, and ECOG PS were also assessed. AFP levels were assessed at baseline and every 4 weeks thereafter, as were laboratory parameters associated with hepatic dysfunction and cirrhosis, such as serum ALT, AST, bilirubin, and albumin levels, PT, and international normalized ratio. ALBI scores were calculated from the albumin and bilirubin levels, as previously described [Johnson P. J., et al. J. Clin. Oncol. 2015; 33:550-558].\nPower calculation determined that 75 deaths, assuming a hazard ratio of 0.5, would provide 80% power for the log-rank test at a significance level of 0.05. Primary efficacy analyses were performed on the ITT population. Descriptive statistics were used to summarize patient/tumor characteristics and safety. […]"}, "[2]": {"test_system": "advanced unresectable HCC", "conditions": "cited from earlier work"}, "HCC": {"test_system": "HCC", "conditions": "syngeneic orthotopic and xenograft models; cited from earlier work"}, "[3]": {"conditions": "9 patients with Child-Pugh Score 9"}, "[4]": {"conditions": "34 namodenoson-treated patients with post-baseline assessment"}, "[5]": {"conditions": "n = 34 with at least 1 post-baseline assessment"}, "[6]": {"conditions": "patients with Child-Pugh score 7"}, "[7]": {"conditions": "patients with Child-Pugh score 8"}}, "note": "“Also recorded” adds a separate entry of the source. Where two headings read alike, the source gives them in different places."}
{"compound": "CNC(=O)[C@H]1O[C@@H](n2cnc3c(NCc4cccc(I)c4)nc(Cl)nc32)[C@H](O)[C@@H]1O", "note": "[namodenoson, 2-chloro-N^6-(3-iodobenzyl)-adenosine-5′-N-methyluronamide]", "values": [{"measurement": "treatment-related deaths", "setting": "[1]; 25 mg BID oral", "result": "No treatment-related deaths"}, {"measurement": "median OS", "setting": "[1]; [3]", "result": 3.5, "unit": "months"}, {"measurement": "median PFS", "setting": "[1]; [3]", "result": 2.2, "unit": "months"}, {"measurement": "PR achieved, number of patients", "setting": "[1]; [4]", "result": 3, "unit": "patients"}, {"measurement": "PR achieved, share of patients", "setting": "[1]; [4]", "result": 9, "unit": "%"}, {"measurement": "patients who experienced CR", "setting": "[1]; [4]", "result": "one patient"}, {"measurement": "OS HR vs placebo", "setting": "[1]; Child-Pugh score 7, 95% CI 0.45-1.43, p=0.46", "result": 0.81}, {"measurement": "PFS HR vs placebo", "setting": "[1]; Child-Pugh score 7, 95% CI 0.51-1.55, p=0.67", "result": 0.89}, {"measurement": "PFS HR vs placebo", "setting": "[1]; Child-Pugh score 8, 95% CI 0.23-2.17, p=0.53", "result": 0.71}, {"measurement": "OS HR vs placebo", "setting": "[1]; Child-Pugh score 8, 95% CI 0.28-2.77, p=0.83", "result": 0.88}, {"measurement": "survival of single patient in Open Label Extension", "setting": "[1]; advanced metastatic HCC, CPB7, 25 mg orally twice a day", "result": "survived five years"}, {"measurement": "response of single patient in Open Label Extension", "setting": "[1]; advanced metastatic HCC, CPB7, 25 mg orally twice a day for 5 years", "result": "Complete Response (CR); also recorded: complete remission of the cancer"}, {"measurement": "mean serum albumin levels and albumin-bilirubin (ALBI) scores", "setting": "[1]; in vivo", "result": "did not change significantly"}, {"measurement": "withdrawals and dose reductions attributable to namodenoson", "setting": "[1]; in vivo, po", "result": "no patients withdrew from the study and no dose reductions were attributable to namodenoson"}, {"measurement": "Best observed response (RECIST 1.1): CR", "setting": "[1]; [5]", "result": "1 (2.94%) n (%)"}, {"measurement": "Best observed response (RECIST 1.1): PD", "setting": "[1]; [5]", "result": "14 (41.2%) n (%)"}, {"measurement": "Best observed response (RECIST 1.1): PR", "setting": "[1]; [5]", "result": "3 (8.8%) n (%)"}, {"measurement": "Best observed response (RECIST 1.1): SD", "setting": "[1]; [5]", "result": "17 (50.0%) n (%)"}, {"measurement": "12-month OS rate", "setting": "[1]; p=0.028 vs placebo, FIG. 1: patients with Child-Pugh Score 7, 25 mg BID", "result": 44, "unit": "%"}, {"measurement": "median OS", "setting": "[1]; [6]", "result": 6.9, "unit": "months"}, {"measurement": "median PFS", "setting": "[1]; [6]", "result": 3.5, "unit": "months"}, {"measurement": "OS", "setting": "[1]; [7]", "result": 3.3, "unit": "months"}, {"measurement": "PFS", "setting": "[1]; [7]", "result": 2.1, "unit": "months"}, {"measurement": "clinical benefits of treatment (scan of chest, abdomen, pelvis)", "setting": "[1]; single patient, advanced metastatic HCC, CPB7, 25 mg orally twice a day", "result": "disappearance of ascites, normal liver function, and the disappearance of peritoneal carcinomatosis"}, {"measurement": "progression-free survival (PFS) superiority over placebo", "setting": "[1]; whole study population", "result": "no superiority"}, {"measurement": "median OS", "setting": "[1]; whole study population, 25 mg BID oral", "result": 4.1, "unit": "months"}, {"measurement": "OS hazard ratio [HR] vs placebo", "setting": "[1]; whole study population, 95% CI 0.49-1.38, p=0.46", "result": 0.82}, {"measurement": "Median overall survival (OS)", "setting": "[2]; CPB patients (28%)", "result": 8.1, "unit": "months"}, {"measurement": "safety and tolerability", "setting": "[2]; in vivo", "result": "safe and well-tolerated"}, {"measurement": "Median overall survival (OS)", "setting": "[2]; whole study population, 67% failed prior sorafenib", "result": 7.8, "unit": "months"}, {"measurement": "effect towards HCC", "setting": "HCC", "result": "induces an apoptotic effect"}]}
